In article PMC10541411 (Nature Communications, 2023):

Tests used:
[1] = molecular target: T1, 53BP1^TT-CC (E1549C/E1567C) (Homo sapiens, UniProt Q12888, E1549C/E1567C); assay: 1H-15N HSQC NMR of 15N-labeled 53BP1TT-CC with UNC3474, with and without DTT; assay type: binding
T1 construct: The tandem Tudor domain of 53BP1 (53BP1^TT, residues 1481–1603) was purified as previously described; made in house
Description: Fig. 4 Engineering of a disulfide-crosslinked 53BP1^TT homodimer that binds UNC3474. a Sedimentation velocity analysis of 53BP1^TT-CC (20 μM) in the presence and absence of 10 mM DTT. b Crystal structure of 53BP1^TT-CC (blue and orange) showing the two disulfide bridges overlaid to the crystal structure of 53BP1^TT-UNC3474 (UNC3474 omitted) in gray. c Effects of adding 2 mM DTT and UNC3474 on the ^1H-^15N HSQC spectrum of ^15N-labeled 53BP1^TT-CC (1:1 UNC3474:53BP1^TT-CC molar ratio).
All NMR data were collected at 25 °C on a 700 MHz Bruker Avance III spectrometer equipped with a cryoprobe. Data were processed and analyzed with NMRPipe[54] and NMRViewJ[55],[56].

[2] = molecular target: T2, 53BP1^TT (tandem Tudor domain of 53BP1, residues 1481–1603) (Homo sapiens, UniProt Q12888); assay: Isothermal titration calorimetry (ITC) of small molecules with 53BP1TT; assay type: binding; conditions: 25 °C, 50 mM Tris-HCl pH 7.5, 50 mM NaCl, one-site model; read-out: Kd (apparent, ITC)
T2 construct: The tandem Tudor domain of 53BP1 (53BP1^TT, residues 1481–1603) was purified as previously described; made in house; host or cells: E. coli (only for the SAXS sample)
T2 sequence (Q12888 1481-1603): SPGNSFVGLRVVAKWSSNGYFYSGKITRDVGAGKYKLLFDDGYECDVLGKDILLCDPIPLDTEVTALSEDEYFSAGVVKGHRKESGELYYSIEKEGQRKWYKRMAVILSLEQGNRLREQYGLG
Description: The ITC measurements were performed at 25 °C using a MicroCal iTC200 calorimeter. 53BP1^TT and the small molecules (UNC2991, UNC3351, UNC3474) were in 50 mM Tris-HCl, pH 7.5, 50 mM NaCl. In a typical run, 53BP1^TT was in the reaction cell at a concentration of 150 to 160 μM while the small molecule, in the titration syringe at a concentration of 0.8–2 mM, was delivered as 2 μL injections every 3 min. The titrations were paired with control experiments for heat of dilution. The titration of 53BP1^TT with UNC1118 was performed using a MicroCal VP-ITC calorimeter. ITC data were fitted to a one-site model using a Levenberg-Marquardt non-linear regression algorithm programmed in the Origin 7.0 software.
Supplementary Figure 1 | Interaction of 53BP1TT with small molecules probed using isothermal titration calorimetry (ITC) and small-angle X-ray scattering (SAXS). a, ITC of the interaction of UNC2991, UNC3351 and UNC3474 with 53BP1TT. Raw titration data and integrated heat measurements are shown. Indicated apparent Kds with associated standard deviations were determined by nonlinear least-squares analysis.
1.33 and 2 mg/mL with an exposure time of 0.5 s, without and with 10-fold molar excess of UNC1118 or UNC3474. The error bars in the scattering curves were generated using PRIMUS in the data analysis software ATSAS 2.4.2 and represent mean ± standard deviation calculated from signal intensity scaling and merging for the three different 53BP1TT concentrations. The Guinier plots, dimensionless Kratky plots and pair distance distribution functions derived from the SAXS data are shown. Also shown are the crystal structures of 53BP1TT and 53BP1TT-UNC3474 overlaid to the corresponding SAXS-based ab initio molecular envelopes generated using GASBOR 2.3i. c, Interaction of UNC1118 with 53BP1TT characterized using ITC (left) and NMR spectroscopy (right).
For the ITC, raw titration data and integrated heat measurements are shown. The indicated Kd with associated standard deviation was determined by nonlinear least-squares analysis.
(1 picture or pasted object on this page, not shown here)

[3] = test system: 53BP1^FFR-CC IRIF in U2OS cells; assay: 53BP1FFR ionizing radiation-induced foci (IRIF) formation, immunofluorescence, CC mutant; assay type: cell-based, Homo Sapiens; conditions: 1 Gy X-ray, different concentrations of UNC3474
Description: The foci-forming region (FFR; residues 1220–1711) of wild-type 53BP1 and mutants E1549P/D1550N (53BP1^FFR-PN) and E1549C/E1567C (53BP1^FFR-CC) were inserted into the retroviral vector POZ. The primers used to introduce the E1549P/D1550N mutations are: […] (forward) and […] (reverse). The primers used to introduce the E1549C/E1567C mutations are: […] (forward) and […] (reverse). The 53BP1^FFR constructs were stably expressed at a moderate level in U2OS cells. To probe the effect of UNC3474 on 53BP1^FFR IRIF formation, U2OS cells were grown on glass coverslips, pre-incubated for 1 h with various concentrations of UNC3474 and exposed to 1 Gy of X-ray radiation. After 1 h, the cells were fixed in 4% formaldehyde in PBS for 15 min at room temperature and blocked and permeabilized for 1 h in PBS containing 0.3% Triton X-100, 1% BSA, 10% fetal bovine serum. […]
Cell samples were subjected to z-stack scanning with a total depth of 5 μm to comprehensively capture all 53BP1^FFR and γH2A.X IRIF within the cell nuclei, which were fluorescently labeled with DAPI. […] To assess the quantification of 53BP1^FFR and γH2A.X foci per nuclei, a customized CellProfiler (version 3.0)[68] pipeline was employed. […]

T1 sequence (Q12888 1481-1603 E1549C/E1567C): as the sequence (Q12888 1481-1603) above, with E69C, E87C counted along it

affinity of reduced monomeric 53BP1TT-CC ([1]; with DTT (2 mM)): no affinity | effect on 1H-15N HSQC spectra of 53BP1TT-CC (disulfide-crosslinked dimer) ([1]; without DTT, 1:1 UNC3474:53BP1TT-CC molar ratio): splitting of several NMR signals | Kd [2]: 1 ± 0.3 µM
SMILES: CC(C)c1cccc(C(=O)NCCCNC(C)(C)C)c1 [UNC3474]
53BP1FFR-CC IRIF [3]: no significant change
